± gives the expanded uncertainty stated by the source.
Test: xn = mol fraction of the nth substance listed
Details: 101 kPa, Liquid, Voltage change across transformer (no electrode)

CCCC[n+]1cccc(C)c1.F[B-](F)(F)F [1-butyl-3-methylpyridinium tetrafluoroborate] + CCO
electrical conductivity [S/m]
Details	293.15 K	303.15 K	313.15 K	323.15 K
x1 = 0.0613	0.787 ± 0.032	1.02 ± 0.041	1.26 ± 0.05	1.53 ± 0.061
x1 = 0.0737	0.888 ± 0.036	1.14 ± 0.046	1.42 ± 0.057	1.72 ± 0.069
x1 = 0.0915	1.02 ± 0.041	1.31 ± 0.053	1.63 ± 0.065	1.96 ± 0.078
x1 = 0.1113	1.14 ± 0.046	1.48 ± 0.059	1.84 ± 0.074	2.19 ± 0.09
x1 = 0.1366	1.24 ± 0.05	1.63 ± 0.065	2.04 ± 0.08	2.43 ± 0.1
x1 = 0.167	1.4 ± 0.056	1.81 ± 0.073	2.22 ± 0.09	2.68 ± 0.11
x1 = 0.1985	1.47 ± 0.059	1.92 ± 0.077	2.36 ± 0.09	2.81 ± 0.11
x1 = 0.2393	1.52 ± 0.061	1.97 ± 0.079	2.4 ± 0.1	2.89 ± 0.12
x1 = 0.2811	1.5 ± 0.06	1.96 ± 0.079	2.4 ± 0.1	2.89 ± 0.12
x1 = 0.3174	1.41 ± 0.056	1.85 ± 0.074	2.31 ± 0.09	2.85 ± 0.11
x1 = 0.3652	1.32 ± 0.053	1.76 ± 0.07	2.24 ± 0.09	2.76 ± 0.11
x1 = 0.4385	1.19 ± 0.048	1.61 ± 0.064	2.11 ± 0.08	2.54 ± 0.1
x1 = 0.4652	1.09 ± 0.044	1.49 ± 0.059	1.92 ± 0.077	2.45 ± 0.1
x1 = 0.5281	0.934 ± 0.037	1.28 ± 0.051	1.68 ± 0.067	2.21 ± 0.09
x1 = 0.5747	0.823 ± 0.033	1.17 ± 0.047	1.56 ± 0.063	2.04 ± 0.08
x1 = 0.6938	0.51 ± 0.02	0.77 ± 0.031	1.15 ± 0.046	1.63 ± 0.065
x1 = 0.7799	0.37 ± 0.015	0.56 ± 0.022	0.891 ± 0.036	1.33 ± 0.053
x1 = 0.9102	0.215 ± 0.009	0.36 ± 0.014	0.59 ± 0.024	0.903 ± 0.036
x1 = 1	0.155 ± 0.0062	0.281 ± 0.011	0.461 ± 0.018	0.704 ± 0.028

CCCC[n+]1ccccc1.F[B-](F)(F)F [1-butylpyridinium tetrafluoroborate] + CO
electrical conductivity [S/m]
Details	293.15 K	303.15 K	313.15 K	323.15 K
x1 = 0.0432	2.87 ± 0.12	3.37 ± 0.14	3.91 ± 0.16	4.28 ± 0.17
x1 = 0.0485	2.98 ± 0.12	3.51 ± 0.14	3.95 ± 0.16	4.62 ± 0.19
x1 = 0.0698	3.21 ± 0.13	3.82 ± 0.15	4.45 ± 0.18	5.11 ± 0.2
x1 = 0.0901	3.45 ± 0.14	4.17 ± 0.17	4.89 ± 0.2	5.46 ± 0.22
x1 = 0.1091	3.71 ± 0.15	4.39 ± 0.18	5.14 ± 0.21	5.81 ± 0.23
x1 = 0.1252	3.75 ± 0.15	4.54 ± 0.18	5.35 ± 0.21	6.06 ± 0.24
x1 = 0.142	3.82 ± 0.15	4.61 ± 0.18	5.45 ± 0.22	6.12 ± 0.24
x1 = 0.1629	3.79 ± 0.15	4.59 ± 0.18	5.49 ± 0.22	6.19 ± 0.25
x1 = 0.1773	3.78 ± 0.15	4.57 ± 0.18	5.38 ± 0.22	6.12 ± 0.24
x1 = 0.2273	3.47 ± 0.14	4.3 ± 0.17	5.16 ± 0.21	6.01 ± 0.24
x1 = 0.2401	3.43 ± 0.14	4.26 ± 0.17	5.13 ± 0.21	5.94 ± 0.24
x1 = 0.2966	3.14 ± 0.13	3.99 ± 0.16	4.81 ± 0.19	5.59 ± 0.22
x1 = 0.3803	2.37 ± 0.09	3.05 ± 0.12	3.72 ± 0.15	4.51 ± 0.18
x1 = 0.4277	2.07 ± 0.08	2.71 ± 0.11	3.39 ± 0.14	4.08 ± 0.16
x1 = 0.4808	1.75 ± 0.07	2.29 ± 0.09	2.89 ± 0.12	3.49 ± 0.14
x1 = 0.5618	1.2 ± 0.048	1.72 ± 0.069	2.22 ± 0.09	2.77 ± 0.11
x1 = 0.6317	0.894 ± 0.036	1.35 ± 0.054	1.81 ± 0.072	2.35 ± 0.09
x1 = 0.698	0.74 ± 0.03	1.07 ± 0.043	1.45 ± 0.058	1.89 ± 0.076
x1 = 0.8355	0.406 ± 0.016	0.647 ± 0.026	0.966 ± 0.039	1.39 ± 0.055
x1 = 0.879	0.321 ± 0.013	0.514 ± 0.021	0.776 ± 0.031	1.12 ± 0.045
x1 = 0.9279	0.27 ± 0.011	0.446 ± 0.018	0.684 ± 0.027	0.976 ± 0.039
x1 = 1	0.181 ± 0.0072	0.321 ± 0.013	0.519 ± 0.021	0.785 ± 0.031

CCCC[n+]1ccc(C)cc1.F[B-](F)(F)F [1-butyl-4-methylpyridinium tetrafluoroborate] + CO
electrical conductivity [S/m]
Details	293.15 K	303.15 K	313.15 K	323.15 K
x1 = 0.0426	2.81 ± 0.11	3.25 ± 0.13	3.55 ± 0.14	4.09 ± 0.16
x1 = 0.0499	2.99 ± 0.12	3.46 ± 0.14	3.93 ± 0.16	4.37 ± 0.18
x1 = 0.0584	3.18 ± 0.13	3.71 ± 0.15	4.17 ± 0.17	4.65 ± 0.19
x1 = 0.0716	3.38 ± 0.14	3.99 ± 0.16	4.56 ± 0.18	5.02 ± 0.2
x1 = 0.0898	3.58 ± 0.14	4.25 ± 0.17	4.82 ± 0.19	5.4 ± 0.22
x1 = 0.1093	3.72 ± 0.15	4.43 ± 0.18	5.08 ± 0.2	5.67 ± 0.23
x1 = 0.1256	3.76 ± 0.15	4.52 ± 0.18	5.2 ± 0.21	5.82 ± 0.23
x1 = 0.1425	3.78 ± 0.15	4.56 ± 0.18	5.27 ± 0.21	5.92 ± 0.24
x1 = 0.2197	3.47 ± 0.14	4.38 ± 0.18	5.15 ± 0.21	5.85 ± 0.23
x1 = 0.2475	3.31 ± 0.13	4.22 ± 0.17	5 ± 0.2	5.7 ± 0.23
x1 = 0.305	3.13 ± 0.13	3.84 ± 0.15	4.61 ± 0.18	5.27 ± 0.21
x1 = 0.3465	2.81 ± 0.11	3.53 ± 0.14	4.27 ± 0.17	4.9 ± 0.2
x1 = 0.4593	2.18 ± 0.09	2.68 ± 0.11	3.3 ± 0.13	3.83 ± 0.15
x1 = 0.5657	1.42 ± 0.057	1.93 ± 0.077	2.47 ± 0.1	2.85 ± 0.11
x1 = 0.6744	0.993 ± 0.04	1.28 ± 0.051	1.71 ± 0.07	1.99 ± 0.08
x1 = 0.7908	0.565 ± 0.023	0.761 ± 0.03	1.12 ± 0.045	1.29 ± 0.051
x1 = 0.8788	0.341 ± 0.014	0.487 ± 0.019	0.78 ± 0.031	0.925 ± 0.037
x1 = 1	0.132 ± 0.0053	0.254 ± 0.01	0.439 ± 0.018	0.687 ± 0.027
